From patent US12252484B2, “Pyrazolopyridine compounds for the treatment of autoimmune disease” (Hoffmann-La Roche Inc., priority 2018, dated 2025)

Molecular target: T1, human TLR9 (Homo sapiens, UniProt Q9NR96)
T1 sequence (Q9NR96 26-1032): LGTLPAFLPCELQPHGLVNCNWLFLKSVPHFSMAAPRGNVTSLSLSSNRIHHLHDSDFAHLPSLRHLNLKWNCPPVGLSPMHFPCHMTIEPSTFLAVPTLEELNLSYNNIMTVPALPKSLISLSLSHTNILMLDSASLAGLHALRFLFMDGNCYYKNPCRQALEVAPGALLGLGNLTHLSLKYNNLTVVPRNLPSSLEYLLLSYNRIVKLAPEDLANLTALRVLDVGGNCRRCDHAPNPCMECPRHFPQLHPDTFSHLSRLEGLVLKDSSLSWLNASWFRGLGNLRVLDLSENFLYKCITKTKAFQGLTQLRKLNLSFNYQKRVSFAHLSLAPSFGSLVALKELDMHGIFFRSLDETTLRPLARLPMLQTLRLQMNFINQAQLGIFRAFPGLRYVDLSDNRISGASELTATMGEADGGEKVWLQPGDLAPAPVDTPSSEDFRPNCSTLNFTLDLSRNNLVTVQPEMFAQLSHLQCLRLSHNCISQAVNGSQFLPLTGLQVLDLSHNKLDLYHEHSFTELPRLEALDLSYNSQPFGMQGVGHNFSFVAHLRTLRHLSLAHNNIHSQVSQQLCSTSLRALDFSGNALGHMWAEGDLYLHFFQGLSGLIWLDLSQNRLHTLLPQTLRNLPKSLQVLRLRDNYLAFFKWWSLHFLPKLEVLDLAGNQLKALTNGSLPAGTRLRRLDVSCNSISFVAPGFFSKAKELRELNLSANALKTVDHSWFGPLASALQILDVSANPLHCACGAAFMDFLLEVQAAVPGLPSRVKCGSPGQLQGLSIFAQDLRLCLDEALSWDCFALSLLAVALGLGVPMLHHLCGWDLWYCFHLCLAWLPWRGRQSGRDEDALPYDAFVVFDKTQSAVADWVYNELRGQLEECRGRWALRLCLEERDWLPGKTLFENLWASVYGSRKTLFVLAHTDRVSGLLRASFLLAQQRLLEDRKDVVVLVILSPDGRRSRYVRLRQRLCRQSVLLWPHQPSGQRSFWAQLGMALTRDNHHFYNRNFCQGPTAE
Assay: HEK293-Blue-hTLR-9 cells assay (SEAP reporter, ODN2006 stimulation)
Format: cell-based
Conditions: HEK293-Blue-hTLR-9 cells, ODN2006 ligand, 20 hrs incubation; read-out: TLR9 IC50
Procedure: The following tests were carried out in order to determine the activity of the compounds of formula (I) in HEK293-Blue-hTLR-7/8/9 cells assay.
HEK293-Blue-hTLR-9 Cells Assay:
A stable HEK293-Blue-hTLR-9 cell line was purchased from InvivoGen (Cat. #: hkb-htlr9, San Diego, California, USA). These cells were originally designed for studying the stimulation of human TLR9 by monitoring the activation of NF-κB. A SEAP (secreted embryonic alkaline phosphatase) reporter gene was placed under the control of the IFN-β minimal promoter fused to five NF-κB and AP-1-binding sites. The SEAP was induced by activating NF-κB and AP-1 via stimulating HEK-Blue hTLR9 cells with TLR9 ligands. Therefore the reporter expression was declined by TLR9 antagonist under the stimulation of a ligand, such as ODN2006 (Cat. #: tlrl-2006-1, Invivogen, San Diego, California, USA), for incubation of 20 hrs. The cell culture supernatant SEAP reporter activity was determined using QUANTI-Blue™ kit (Cat. #: rep-qb1, Invivogen, San Diego, California, USA) at a wavelength of 640 nm, a detection medium that turns purple or blue in the presence of alkaline phosphatase.
HEK293-Blue-hTLR9 cells were incubated at a density of 250,000˜450,000 cells/mL in a volume of 170 μL in a 96-well plate in Dulbecco's Modified Eagle's medium (DMEM) containing 4.5 g/L glucose, 50 U/mL penicillin, […], 2 mM L-glutamine, 10% (v/v) heat-inactivated fetal bovine serum with addition of 20 μL test compound in a serial dilution in the presence of final DMSO at 1% and 10 μL of 20 uM ODN2006 in above DMEM, perform incubation under 37° C. in a CO2 incubator for 20 hrs. Then 20 μL of the supernatant from each well was incubated with 180 μL Quanti-blue substrate solution at 37° C. for 2 hrs and the absorbance was read at 620˜655 nm using a spectrophotometer. The signalling pathway that TLR9 activation leads to downstream NF-κB activation has been widely accepted, and therefore similar reporter assay was modified for evaluating TLR9 antagonist.

SMILES | IC50 [µM]
C[C@@H]1CN(c2ccc(C#N)n3nccc23)C[C@H](C(=O)NC2CN(C)CC23CC3)O1 (stereo partly drawn) [Example 32, (2R,6R)-4-(7-cyanopyrazolo[1,5-a]pyridin-4-yl)-6-methyl-N-(5-methyl-5-azaspiro[2.4]heptan-7-yl)morpholine-2-carboxamide] | 9.7
C[C@@H]1CN(c2ccc(C#N)n3nccc23)C[C@H](C(=O)Nc2ccc(C(=O)N3CCNCC3)cc2)O1 [Example 42, (2R,6R)-4-(7-cyanopyrazolo[1,5-a]pyridin-4-yl)-6-methyl-N-[4-(piperazine-1-carbonyl)phenyl]morpholine-2-carboxamide] | 1.8
C[C@@H]1CN(c2ccc(C#N)n3nccc23)C[C@H](C(=O)NC2CCNC2)O1 (stereo partly drawn) [Example 25, (2R,6R)-4-(7-cyanopyrazolo[1,5-a]pyridin-4-yl)-6-methyl-N-pyrrolidin-3-yl-morpholine-2-carboxamide] | 25
CCC(O)CNC(=O)[C@H]1CN(c2ccc(C#N)n3nccc23)C[C@@H](C)O1 (stereo partly drawn) [Example 13, (2R,6R)-4-(7-cyanopyrazolo[1,5-a]pyridin-4-yl)-N-(2-hydroxybutyl)-6-methyl-morpholine-2-carboxamide] | > 100
C[C@@H]1CN(c2ccc(C#N)n3nccc23)C[C@H](C(=O)NC2CCNCC2)O1 [Example 24, (2R,6R)-4-(7-cyanopyrazolo[1,5-a]pyridin-4-yl)-6-methyl-N-(4-piperidyl)morpholine-2-carboxamide] | 13
C[C@@H]1CN(c2ccc(Cl)n3nccc23)C[C@H](C(=O)NC2CCN(C)CC2)O1 [Example 38, (2R,6R)-4-(7-chloropyrazolo[1,5-a]pyridin-4-yl)-6-methyl-N-(1-methyl-4-piperidyl)morpholine-2-carboxamide] | 36
C[C@@H]1CN(c2ccc(C#N)n3nccc23)C[C@H](C(=O)NC23CC(CO)(C2)C3)O1 [Example 15, (2R,6R)-4-(7-cyanopyrazolo[1,5-a]pyridin-4-yl)-N-[3-(hydroxymethyl)-1-bicyclo[1.1.1]pentanyl]-6-methyl-morpholine-2-carboxamide] | > 100
C[C@@H]1CN(c2ccc(C#N)n3nccc23)C[C@H](C(=O)NCC2CCNC2)O1 (stereo partly drawn) [Example 40, (2R,6R)-4-(7-cyanopyrazolo[1,5-a]pyridin-4-yl)-6-methyl-N-(pyrrolidin-3-ylmethyl)morpholine-2-carboxamide] | 48
C[C@H]1C[C@@H](NCC#N)CN(c2ccc(C#N)n3nccc23)C1 [Example 46, 4-[(3R,5S)-3-(cyanomethylamino)-5-methyl-1-piperidyl]pyrazolo[1,5-a]pyridine-7-carbonitrile] | 31

Continued, values first:

IC50 [µM] | SMILES
11 | C[C@@H]1CN(c2ccc(C#N)n3nccc23)C[C@H](C(=O)NC2CC3CCC2CN3C)O1 (stereo partly drawn) [Example 34, (2R,6R)-4-(7-cyanopyrazolo[1,5-a]pyridin-4-yl)-6-methyl-N-(2-methyl-2-azabicyclo[2.2.2]octan-5-yl)morpholine-2-carboxamide]
58 | C[C@@H]1CN(c2ccc(C#N)n3nccc23)C[C@H](C(=O)NCC2CN(C)CCO2)O1 (stereo partly drawn) [Example 7, (2R,6R)-4-(7-cyanopyrazolo[1,5-a]pyridin-4-yl)-6-methyl-N-[(4-methylmorpholin-2-yl)methyl]morpholine-2-carboxamide]
4.8 | C[C@@H]1CN(c2ccc(C#N)n3nccc23)C[C@H](C(=O)NC2CCCNCC2)O1 (stereo partly drawn) [Example 6, (2R,6R)-N-(azepan-4-yl)-4-(7-cyanopyrazolo[1,5-a]pyridin-4-yl)-6-methyl-morpholine-2-carboxamide]
> 100 | C[C@@H]1CN(c2ccc(C#N)n3nccc23)C[C@H](C(=O)N[C@H]2CC[C@H](O)CC2)O1 [Example 21, Trans-(2R,6R)-4-(7-cyanopyrazolo[1,5-a]pyridin-4-yl)-N-(4-hydroxycyclohexyl)-6-methyl-morpholine-2-carboxamide]
42 | C[C@@H]1CN(c2ccc(C#N)n3nccc23)C[C@H](C(=O)NC23CC4CC(CC(C4)C2)C3)O1 [Example 12, (2R,6R)-N-(1-adamantyl)-4-(7-cyanopyrazolo[1,5-a]pyridin-4-yl)-6-methyl-morpholine-2-carboxamide]
1.1 | C[C@@H]1CN(c2ccc(C#N)n3nccc23)C[C@H](C(=O)NC2C3CNC[C@@H]32)O1 (stereo partly drawn) [Example 31, Trans-(2R,6R)-N-(3-azabicyclo[3.1.0]hexan-6-yl)-4-(7-cyanopyrazolo[1,5-a]pyridin-4-yl)-6-methyl-morpholine-2-carboxamide]
1.6 | C[C@@H]1CN(c2ccc(C#N)n3nccc23)C[C@H](C(=O)NC2CC3CCCC(C2)N3)O1 (stereo partly drawn) [Example 14, (2R,6R)-N-(9-azabicyclo[3.3.1]nonan-3-yl)-4-(7-cyanopyrazolo[1,5-a]pyridin-4-yl)-6-methyl-morpholine-2-carboxamide]
> 100 | C[C@@H]1CN(c2ccc(C#N)n3nccc23)C[C@H](C(=O)NCC2CNCC2(F)F)O1 (stereo partly drawn) [Example 18, (2R,6R)-4-(7-cyanopyrazolo[1,5-a]pyridin-4-yl)-N-[(4,4-difluoropyrrolidin-3-yl)methyl]-6-methyl-morpholine-2-carboxamide]
7.7 | C[C@@H]1CN(c2ccc(C#N)n3nccc23)C[C@H](C(=O)NC2CC3CCC(C2)N3C)O1 (stereo partly drawn) [Example 33, (2R,6R)-4-(7-cyanopyrazolo[1,5-a]pyridin-4-yl)-6-methyl-N-(8-methyl-8-azabicyclo[3.2.1]octan-3-yl)morpholine-2-carboxamide]
